Data set [1] has as its target T1, Short transient receptor potential channel 3 (Homo sapiens) (UniProt Q13507).
T1 sequence (whole entry): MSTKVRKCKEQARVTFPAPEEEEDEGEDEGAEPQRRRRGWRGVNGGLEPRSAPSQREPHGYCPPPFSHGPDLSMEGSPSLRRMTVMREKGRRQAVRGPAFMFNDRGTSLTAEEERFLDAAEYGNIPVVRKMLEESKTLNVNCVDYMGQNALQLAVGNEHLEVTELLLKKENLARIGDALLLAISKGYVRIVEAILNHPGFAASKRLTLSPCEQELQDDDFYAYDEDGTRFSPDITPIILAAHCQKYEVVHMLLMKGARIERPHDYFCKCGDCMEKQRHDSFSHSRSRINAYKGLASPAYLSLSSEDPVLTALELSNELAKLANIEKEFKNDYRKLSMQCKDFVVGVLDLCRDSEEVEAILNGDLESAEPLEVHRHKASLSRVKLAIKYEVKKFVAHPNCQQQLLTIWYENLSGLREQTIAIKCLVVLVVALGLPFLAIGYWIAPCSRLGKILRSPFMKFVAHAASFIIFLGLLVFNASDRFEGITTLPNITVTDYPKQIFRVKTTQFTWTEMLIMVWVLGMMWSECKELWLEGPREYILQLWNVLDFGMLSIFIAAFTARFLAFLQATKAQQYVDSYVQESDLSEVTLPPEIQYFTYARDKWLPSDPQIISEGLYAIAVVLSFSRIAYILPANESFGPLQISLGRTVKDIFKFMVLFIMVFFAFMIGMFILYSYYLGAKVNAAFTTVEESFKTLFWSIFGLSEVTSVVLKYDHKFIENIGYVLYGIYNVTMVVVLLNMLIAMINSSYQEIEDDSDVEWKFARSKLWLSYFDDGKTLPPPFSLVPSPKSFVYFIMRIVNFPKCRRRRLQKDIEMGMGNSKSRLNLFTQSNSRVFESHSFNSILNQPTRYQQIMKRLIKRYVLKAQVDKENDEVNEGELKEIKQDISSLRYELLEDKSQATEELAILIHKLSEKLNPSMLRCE
The experiment in a line: Antagonist activity at human TRPC3 expressed in HEK293 cells assessed as inhibition of carbachol-induced activity at 10 uM measured after 48 hrs by Whole-cell patch clamp electrophysiology relative to control. In kind it is cell-based. (The patch-clamp technique gives a direct electrical read-out from membranes.)

For data set [2], the target named is T2, Short transient receptor potential channel 6 (Homo sapiens) (UniProt Q9Y210).
T2 sequence (whole entry): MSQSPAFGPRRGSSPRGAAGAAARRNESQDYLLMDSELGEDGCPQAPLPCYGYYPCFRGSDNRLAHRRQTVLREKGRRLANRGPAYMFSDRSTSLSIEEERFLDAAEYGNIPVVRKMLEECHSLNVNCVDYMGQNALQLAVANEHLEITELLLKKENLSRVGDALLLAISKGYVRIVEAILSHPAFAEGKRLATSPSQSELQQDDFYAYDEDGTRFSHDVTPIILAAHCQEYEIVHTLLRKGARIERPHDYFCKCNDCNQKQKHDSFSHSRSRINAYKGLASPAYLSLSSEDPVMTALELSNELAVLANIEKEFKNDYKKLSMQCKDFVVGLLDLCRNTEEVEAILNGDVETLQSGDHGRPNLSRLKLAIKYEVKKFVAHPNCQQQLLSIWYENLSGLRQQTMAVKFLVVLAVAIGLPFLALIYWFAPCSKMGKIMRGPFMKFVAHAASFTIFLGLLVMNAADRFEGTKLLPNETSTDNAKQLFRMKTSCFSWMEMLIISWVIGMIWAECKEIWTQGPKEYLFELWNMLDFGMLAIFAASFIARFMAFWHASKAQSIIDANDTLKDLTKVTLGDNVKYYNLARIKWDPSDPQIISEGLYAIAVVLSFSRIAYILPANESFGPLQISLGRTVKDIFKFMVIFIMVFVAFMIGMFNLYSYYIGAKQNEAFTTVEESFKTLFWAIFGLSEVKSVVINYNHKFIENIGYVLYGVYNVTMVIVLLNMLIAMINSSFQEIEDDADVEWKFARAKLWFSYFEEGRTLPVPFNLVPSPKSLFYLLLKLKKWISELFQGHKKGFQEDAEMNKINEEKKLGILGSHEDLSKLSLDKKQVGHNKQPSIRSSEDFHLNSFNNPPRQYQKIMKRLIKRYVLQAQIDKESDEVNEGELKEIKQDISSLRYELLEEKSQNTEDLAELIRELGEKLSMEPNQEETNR
The experiment in a line: Antagonist activity at human TRPC6 expressed in HEK293 cells assessed as inhibition of carbachol-induced activity at 10 uM measured after 48 hrs by Whole-cell patch clamp electrophysiology. In kind it is cell-based.

Data set [3] concerns the target Short transient receptor potential channel 1 (Mus musculus) (UniProt Q61056). The experiment in a line: Antagonist activity at mouse TRPC1 expressed in HEK293 cells assessed as inhibition of carbachol-induced activity at 10 uM measured after 48 hrs by Whole-cell patch clamp electrophysiology. In kind it is cell-based.
For data set [4], the target named is Transient receptor potential cation channel subfamily M member 8 (Rattus norvegicus) (UniProt Q8R455). The experiment in a line: Antagonist activity at rat TRPM8 expressed in HEK293 cells assessed as inhibition of carbachol-induced activity at 10 uM measured after 48 hrs by Whole-cell patch clamp electrophysiology. In kind it is cell-based.
Chain of Transient receptor potential cation channel subfamily M member 8 (Rattus norvegicus) (Q8R455 whole entry, looked up): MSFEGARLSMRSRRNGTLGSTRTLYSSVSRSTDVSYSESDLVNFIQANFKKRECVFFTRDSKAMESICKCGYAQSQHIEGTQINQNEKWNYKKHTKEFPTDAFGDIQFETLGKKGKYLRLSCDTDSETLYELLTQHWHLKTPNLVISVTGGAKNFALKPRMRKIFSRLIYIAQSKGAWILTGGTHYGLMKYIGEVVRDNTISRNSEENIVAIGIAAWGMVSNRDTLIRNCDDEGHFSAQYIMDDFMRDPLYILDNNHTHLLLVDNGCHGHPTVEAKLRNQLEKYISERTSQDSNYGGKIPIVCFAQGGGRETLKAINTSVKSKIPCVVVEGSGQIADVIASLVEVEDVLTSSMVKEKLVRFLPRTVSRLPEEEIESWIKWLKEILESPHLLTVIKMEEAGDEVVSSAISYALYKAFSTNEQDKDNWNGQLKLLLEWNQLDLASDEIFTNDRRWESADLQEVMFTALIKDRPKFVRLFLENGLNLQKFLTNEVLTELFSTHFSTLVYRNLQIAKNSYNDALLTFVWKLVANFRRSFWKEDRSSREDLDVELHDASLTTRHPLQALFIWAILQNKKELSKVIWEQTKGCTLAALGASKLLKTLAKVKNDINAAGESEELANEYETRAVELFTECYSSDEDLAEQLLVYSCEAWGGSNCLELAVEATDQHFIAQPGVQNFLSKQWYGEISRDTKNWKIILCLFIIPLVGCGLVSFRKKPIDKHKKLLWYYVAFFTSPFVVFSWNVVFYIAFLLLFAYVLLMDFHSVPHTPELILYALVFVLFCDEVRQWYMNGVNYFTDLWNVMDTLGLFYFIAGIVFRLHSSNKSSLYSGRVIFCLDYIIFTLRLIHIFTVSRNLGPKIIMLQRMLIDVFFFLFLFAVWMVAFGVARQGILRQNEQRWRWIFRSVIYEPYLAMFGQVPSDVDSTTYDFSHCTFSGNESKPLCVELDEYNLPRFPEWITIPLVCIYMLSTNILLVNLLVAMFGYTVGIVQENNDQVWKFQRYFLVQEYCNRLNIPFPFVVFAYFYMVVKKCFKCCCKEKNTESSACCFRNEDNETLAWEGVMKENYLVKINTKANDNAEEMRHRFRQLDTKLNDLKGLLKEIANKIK
Data set [5] deals with Short transient receptor potential channel 1 (Rattus norvegicus) (UniProt Q9QX01). The experiment in a line: Antagonist activity at rat TRPC1 expressed in HEK293 cells assessed as inhibition of carbachol-induced activity at 10 uM measured after 48 hrs by Whole-cell patch clamp electrophysiology. Format: cell-based.
Chain of Short transient receptor potential channel 1 (Rattus norvegicus) (Q9QX01 whole entry): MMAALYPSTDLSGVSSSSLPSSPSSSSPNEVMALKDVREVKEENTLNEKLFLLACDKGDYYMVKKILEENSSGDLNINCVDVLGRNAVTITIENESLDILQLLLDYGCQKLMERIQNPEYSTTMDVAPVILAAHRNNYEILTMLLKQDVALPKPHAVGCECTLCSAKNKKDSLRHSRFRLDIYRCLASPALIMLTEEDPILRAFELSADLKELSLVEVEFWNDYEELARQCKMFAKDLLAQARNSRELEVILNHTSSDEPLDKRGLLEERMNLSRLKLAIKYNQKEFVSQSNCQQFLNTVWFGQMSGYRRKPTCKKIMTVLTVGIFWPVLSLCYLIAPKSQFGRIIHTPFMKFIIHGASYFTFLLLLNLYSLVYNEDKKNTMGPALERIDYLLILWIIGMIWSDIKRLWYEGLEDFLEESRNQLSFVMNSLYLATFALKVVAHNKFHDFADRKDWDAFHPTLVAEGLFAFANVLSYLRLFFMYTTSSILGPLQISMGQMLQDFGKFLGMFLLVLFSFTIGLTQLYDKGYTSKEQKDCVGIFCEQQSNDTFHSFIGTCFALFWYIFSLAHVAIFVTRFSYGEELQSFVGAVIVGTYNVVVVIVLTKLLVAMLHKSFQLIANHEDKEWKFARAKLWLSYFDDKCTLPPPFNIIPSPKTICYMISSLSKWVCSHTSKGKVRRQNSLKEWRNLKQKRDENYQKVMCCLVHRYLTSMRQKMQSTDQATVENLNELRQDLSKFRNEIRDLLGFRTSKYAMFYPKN
Data set [6] deals with T3, Short transient receptor potential channel 7 (Homo sapiens) (UniProt Q9HCX4).
T3 sequence (whole entry): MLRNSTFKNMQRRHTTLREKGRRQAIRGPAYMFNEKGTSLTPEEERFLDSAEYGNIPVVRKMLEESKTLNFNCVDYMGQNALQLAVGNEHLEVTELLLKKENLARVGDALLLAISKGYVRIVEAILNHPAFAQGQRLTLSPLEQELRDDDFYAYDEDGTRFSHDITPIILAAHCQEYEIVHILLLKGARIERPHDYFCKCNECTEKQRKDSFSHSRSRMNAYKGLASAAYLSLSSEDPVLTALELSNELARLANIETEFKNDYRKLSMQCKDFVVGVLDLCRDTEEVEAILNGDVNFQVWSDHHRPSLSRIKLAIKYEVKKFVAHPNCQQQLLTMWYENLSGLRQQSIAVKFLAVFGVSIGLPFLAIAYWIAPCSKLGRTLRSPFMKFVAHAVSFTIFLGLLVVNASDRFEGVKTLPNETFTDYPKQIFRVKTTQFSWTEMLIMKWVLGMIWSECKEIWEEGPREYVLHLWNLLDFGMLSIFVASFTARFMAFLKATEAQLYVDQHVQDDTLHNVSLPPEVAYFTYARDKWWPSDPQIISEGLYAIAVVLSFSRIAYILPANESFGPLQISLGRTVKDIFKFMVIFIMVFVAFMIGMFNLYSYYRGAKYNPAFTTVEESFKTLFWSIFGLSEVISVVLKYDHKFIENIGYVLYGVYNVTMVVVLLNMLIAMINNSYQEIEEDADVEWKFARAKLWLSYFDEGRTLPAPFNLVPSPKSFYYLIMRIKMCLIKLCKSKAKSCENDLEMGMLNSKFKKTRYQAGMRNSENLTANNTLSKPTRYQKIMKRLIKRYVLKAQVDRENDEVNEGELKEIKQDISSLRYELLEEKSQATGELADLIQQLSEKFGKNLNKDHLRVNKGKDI
The experiment in a line: Antagonist activity at human TRPC7 expressed in HEK293 cells assessed as inhibition of carbachol-induced activity at 10 uM measured after 48 hrs by Whole-cell patch clamp electrophysiology. In kind it is cell-based.

For another data set, the system named is Hippocampal neurone. The experiment in a line: Rescuing beta-amyloid induced neuronal cell damage in Sprague-Dawley rat primary hippocampal cell culture (composed of 60% primary neuron, 20% microglia and 20% astrocyte) assessed as decrease in soluble oligomeric Abeta-containing media (7PA2 cells) induced synaptic toxicity at 250 nM. Format: functional, cell-based.

Data set [7] is described as follows: Cytotoxicity against Sprague-Dawley rat primary hippocampal cells at 100 nM. In kind it is toxicity, cell-based. As to conditions: hippocampal neurone, 0.1 µM.
Data set [8] can be described thus: Kinetic solubility of the compound in ph 7.4 PBS buffer measured after 24 hrs shaken by HPLC and UPLC system. The following applies: read-out: Kinetic_solubility. Format: physicochemical.

Molecules are shown by their SMILES. In brackets after ≈: the same amount, converted by molar mass. Activity calls are given as the source filed them. The calls are words filed in the database; no cut-off is given here.

Broadly, the inhibition is how much of the control response was suppressed.

Chain of Short transient receptor potential channel 1 (Mus musculus) (Q61056 whole entry): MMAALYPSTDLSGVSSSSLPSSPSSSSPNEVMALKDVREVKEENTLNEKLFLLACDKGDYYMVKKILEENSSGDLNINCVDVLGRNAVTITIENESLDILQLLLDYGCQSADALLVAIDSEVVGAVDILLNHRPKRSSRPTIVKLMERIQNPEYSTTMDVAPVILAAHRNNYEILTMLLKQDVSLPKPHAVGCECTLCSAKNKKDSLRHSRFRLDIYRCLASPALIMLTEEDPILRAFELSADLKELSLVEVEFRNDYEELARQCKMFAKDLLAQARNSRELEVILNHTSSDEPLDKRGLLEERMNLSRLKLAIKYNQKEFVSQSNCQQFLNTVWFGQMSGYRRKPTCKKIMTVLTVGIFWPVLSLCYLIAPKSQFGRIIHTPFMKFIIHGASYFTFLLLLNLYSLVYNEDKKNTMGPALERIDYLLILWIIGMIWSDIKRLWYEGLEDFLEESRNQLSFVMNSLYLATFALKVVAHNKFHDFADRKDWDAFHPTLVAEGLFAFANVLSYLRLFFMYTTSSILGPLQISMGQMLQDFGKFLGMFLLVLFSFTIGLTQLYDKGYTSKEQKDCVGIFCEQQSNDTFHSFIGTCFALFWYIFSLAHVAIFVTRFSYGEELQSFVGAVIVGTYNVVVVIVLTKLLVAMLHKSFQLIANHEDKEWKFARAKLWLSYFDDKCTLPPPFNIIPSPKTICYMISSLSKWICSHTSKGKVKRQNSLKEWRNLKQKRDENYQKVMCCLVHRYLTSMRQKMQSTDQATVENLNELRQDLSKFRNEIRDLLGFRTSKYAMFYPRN

As to `O=C(NC1CC1)c1cnn(-c2ccc(-n3ccc(Cl)c(Cl)c3=O)cc2)c1C(F)(F)F`, the inhibition in data set [1] is less than 80%.
With `CC(=O)c1cnn(-c2ccc(-n3ccc(Cl)c(Cl)c3=O)cc2)c1C(F)(F)F`, the inhibition in data set [1] (filed as antagonist) is more than 80%.
`NC(=O)c1cnn(-c2ccc(-n3ccc(Cl)c(Cl)c3=O)cc2)c1C(F)(F)F`: the inhibition in data set [1] is less than 80%.
With `CCOC(=O)c1cnn(-c2ccc(NC(=O)C(Cl)=C(Cl)Cl)cc2)c1C(F)(F)F`, the result in data set [2], in data set [3], in data set [4], in data set [5] and in data set [6] was inactive. In addition, the inhibition in data set [1] (filed as antagonist) was more than 80%.
Consider `CCNC(=O)c1cnn(-c2ccc(-n3ccc(O)c(Cl)c3=O)cc2)c1C(F)(F)F`, for which the inhibition in [1] (filed as antagonist) is more than 90%.
`CCNC(=O)c1sc(-c2ccc(-n3ccc(Cl)c(Cl)c3=O)cc2)nc1C(F)(F)F`: the inhibition in [1] is less than 80%.
For the compound `CCc1nnc(-c2cnn(-c3ccc(-n4ccc(Cl)c(Cl)c4=O)cc3)c2C(F)(F)F)o1`, in data set [1] (filed as antagonist), the inhibition is more than 90%.
On the same count and under the same terms, then `CNC(=O)c1cnn(-c2ccc(-n3ccc(Cl)c(Cl)c3=O)cc2)c1C(F)(F)F`, with more than 80%.
On to `CS(=O)(=O)c1cnn(-c2ccc(-n3ccc(Cl)c(Cl)c3=O)cc2)c1C(F)(F)F`, for which the inhibition in data set [1] was less than 80%.
On the same count and under the same terms, then `CCCC(=O)c1cnn(-c2ccc(-n3ccc(Cl)c(Cl)c3=O)cc2)c1C(F)(F)F`, with less than 80%.
In the case of `CCNC(=O)c1nn(-c2ccc(-n3ccc(Cl)c(Cl)c3=O)cc2)nc1C(F)(F)F`, in data set [1] (filed as antagonist), the inhibition is more than 80%.
On to `CCNC(=O)c1cnn(-c2ccc(-n3ccc(Cl)c(Cl)c3=O)cc2)c1`, for which the inhibition in [1] (filed as antagonist) was more than 97%.
As to `CCNC(=O)c1cnn(-c2ccc(-n3ccc(Cl)c(Cl)c3=O)cn2)c1C(F)(F)F`, the inhibition in [1] was less than 80%.
`CCC(=O)Nc1cnn(-c2ccc(-n3ccc(Cl)c(Cl)c3=O)cc2)c1C(F)(F)F`: the inhibition in data set [1] (filed as antagonist) was more than 80%.
On to `CCNC(=O)c1cnn(-c2ccc(-n3ccc(Cl)c(Br)c3=O)cc2)c1C(F)(F)F`, for which, in data set [1], the inhibition was less than 80%.
`CCNC(=O)c1cnn(-c2ccc(-n3ccc(OC)c(Cl)c3=O)cc2)c1C(F)(F)F`: in data set [1], the inhibition is less than 80%.
With `CCNC(=O)c1cn(-c2ccc(-n3ccc(Cl)c(Cl)c3=O)cc2)nc1C(F)(F)F`, the inhibition in [1] (filed as antagonist) is more than 97%.
On the same count and under the same terms, the same measure for `CCNC(=O)c1ncn(-c2ccc(-n3ccc(Cl)c(Cl)c3=O)cc2)c1C(F)(F)F`: more than 90%.
Turning to `CCNC(=O)c1cnn(-c2ccc(-n3ccc(Cl)c(Cl)c3=O)cc2)c1Cl`, the inhibition in [1] was less than 80%.
For the compound `CCNC(=O)c1nnn(-c2ccc(-n3ccc(Cl)c(Cl)c3=O)cc2)c1C(F)(F)F`, in data set [1], the inhibition is less than 80%.
On the same count and under the same terms, the same measure for `CC(C)NC(=O)c1cnn(-c2ccc(-n3ccc(Cl)c(Cl)c3=O)cc2)c1C(F)(F)F`: less than 80%.
Take `CC(C)CNC(=O)c1cnn(-c2ccc(-n3ccc(Cl)c(Cl)c3=O)cc2)c1C(F)(F)F`: in data set [1] (filed as antagonist), the inhibition is more than 90%.
With `CCNC(=O)c1cnn(-c2ccc(-n3ccc(C(F)(F)F)c(Cl)c3=O)cc2)c1C(F)(F)F`, the inhibition in [1] (filed as antagonist) is more than 80%.
`CCNC(=O)c1cnn(-c2ccc(-n3ccc(Cl)c(Cl)c3=O)cc2)c1S(C)(=O)=O`: the inhibition in data set [1] was less than 80%.
Consider `CCNC(=O)c1cnn(-c2ccc(-n3ccc(Cl)c(Cl)c3=O)cc2)c1C(F)(F)F`, for which the result in data set [2], in data set [3], in data set [4], in data set [5] and in data set [6] was inactive. For the same compound, the result in the data set on Hippocampal neurone was Active. The Activity entry in data set [7] was “Non-toxic”. In addition, in [8], the solubility kinetic at 24 h turned out to be 144 µM (≈ 64.1 µg/mL). Also, the inhibition in data set [1] (filed as antagonist) is more than 80%.
With `O=C(c1cnn(-c2ccc(-n3ccc(Cl)c(Cl)c3=O)cc2)c1C(F)(F)F)N1CCCC1`, the inhibition in [1] (filed as antagonist) was more than 80%.
As to `CCCCNC(=O)c1cnn(-c2ccc(-n3ccc(Cl)c(Cl)c3=O)cc2)c1C(F)(F)F`, in data set [1], the inhibition was less than 80%.
The same measure, in the same setting: then `CCOCc1cnn(-c2ccc(-n3ccc(Cl)c(Cl)c3=O)cc2)c1C(F)(F)F`, with less than 80%.
Consider `CCN(CC)Cc1cnn(-c2ccc(-n3ccc(Cl)c(Cl)c3=O)cc2)c1C(F)(F)F`, for which the inhibition in data set [1] (filed as antagonist) was more than 80%.
In the case of `CCNC(=O)c1cnn(-c2ccc(-n3ccc(Cl)c(Cl)c3=O)cc2)c1C#N`, in [1] (filed as antagonist), the inhibition is more than 80%.
For `CCCNC(=O)c1cnn(-c2ccc(-n3ccc(Cl)c(Cl)c3=O)cc2)c1C(F)(F)F`, the inhibition in data set [1] is less than 80%.
On to `CCN(CC)C(=O)c1cnn(-c2ccc(-n3ccc(Cl)c(Cl)c3=O)cc2)c1C(F)(F)F`, for which the inhibition in data set [1] (filed as antagonist) was more than 90%.

(Values after ChEMBL document CHEMBL6078670, “Discovery of a potent and selective TRPC3 antagonist with neuroprotective effects” (Bioorg Med Chem, 2025).)
